Assay results reported in US20210198277A1, “AMINE-SUBSTITUTED ARYL OR HETEROARYL COMPOUNDS” (Epizyme, Inc., priority 2016, published 2021).

What follows are compounds tested against T1, EHMT2 (Homo sapiens, UniProt Q96KQ7) (assay: MDA-MB-231 H3K9me2 in-cell Western assay (EHMT2 ICW)). Details: Table VI; read-out: EHMT2 ICW IC50.
T1 construct: host or cells: MDA-MB-231
T1 sequence (Q96KQ7 1-1210): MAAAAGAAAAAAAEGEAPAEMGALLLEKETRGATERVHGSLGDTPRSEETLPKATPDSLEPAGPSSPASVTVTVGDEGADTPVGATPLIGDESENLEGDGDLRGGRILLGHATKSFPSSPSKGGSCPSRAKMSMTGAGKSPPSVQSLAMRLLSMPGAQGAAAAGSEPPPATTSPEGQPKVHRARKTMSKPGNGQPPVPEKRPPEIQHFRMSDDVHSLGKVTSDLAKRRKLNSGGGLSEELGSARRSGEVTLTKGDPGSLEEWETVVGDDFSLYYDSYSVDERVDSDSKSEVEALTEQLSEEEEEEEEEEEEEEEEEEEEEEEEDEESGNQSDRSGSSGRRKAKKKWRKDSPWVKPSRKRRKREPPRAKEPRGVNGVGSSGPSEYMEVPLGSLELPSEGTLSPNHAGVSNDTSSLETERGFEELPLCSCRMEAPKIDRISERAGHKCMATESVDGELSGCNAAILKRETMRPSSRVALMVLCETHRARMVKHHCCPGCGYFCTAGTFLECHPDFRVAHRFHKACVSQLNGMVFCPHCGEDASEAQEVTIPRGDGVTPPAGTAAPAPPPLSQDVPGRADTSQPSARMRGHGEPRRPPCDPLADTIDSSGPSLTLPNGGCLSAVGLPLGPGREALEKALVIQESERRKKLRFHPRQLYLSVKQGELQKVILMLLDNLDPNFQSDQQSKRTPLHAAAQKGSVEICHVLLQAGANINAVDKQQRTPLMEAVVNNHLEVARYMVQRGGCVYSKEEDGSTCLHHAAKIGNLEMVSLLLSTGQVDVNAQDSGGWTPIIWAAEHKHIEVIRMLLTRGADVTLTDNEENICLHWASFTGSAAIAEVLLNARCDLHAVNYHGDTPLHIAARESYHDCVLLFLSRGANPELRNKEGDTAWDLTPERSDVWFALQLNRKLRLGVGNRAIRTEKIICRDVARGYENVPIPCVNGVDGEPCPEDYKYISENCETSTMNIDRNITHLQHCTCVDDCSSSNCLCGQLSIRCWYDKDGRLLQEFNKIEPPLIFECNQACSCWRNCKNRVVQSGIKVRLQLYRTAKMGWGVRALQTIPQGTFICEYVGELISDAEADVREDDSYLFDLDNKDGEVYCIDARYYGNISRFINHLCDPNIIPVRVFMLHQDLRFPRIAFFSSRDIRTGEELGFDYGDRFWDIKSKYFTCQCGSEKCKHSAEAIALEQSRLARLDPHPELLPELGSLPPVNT
Format: cell-based
Procedure, shortened: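 Cellular dimethyl-H3K9 is quantified by in-cell Western in MDA-MB-231 cells treated with compound for 48 h. The H3K9me2 signal at 800 nm is normalised to DRAQ5 nuclear stain at 700 nm. IC50 is calculated from triplicate concentration points by nonlinear regression.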

Compound | IC50 [µM]
COc1cnc(Nc2cccc3[nH]nnc23)cc1OCCCN1CCCC1 [Compound 619] | > 10
CCN1CC(COc2cc(Nc3cccn4cnnc34)ncc2OC)C1 [Compound 620] | > 10
CNc1cc(C)nc(Nc2c[nH]c(=O)c(OCCCN3CCCC3)c2)n1 [Compound 621] | > 10
CNc1cc(C)nc(Nc2cc(OCCCN3CCCC3)c3nncn3c2)n1 [Compound 622] | > 10
COc1ccc(Nc2nc(C)cc(C3CCOCC3)n2)cc1OCCCN1CCCC1 [Compound 870] | > 10
CNc1cc(C)nc(Nc2ccc(OC)c(C(=O)NCc3ccccc3)c2)n1 [Compound 871] | > 10
CNc1cc(C)nc(Nc2ccc(OC)c(C(=O)NC3CCN(C)CC3)c2)n1 [Compound 873] | > 10
CNc1cc(C)nc(Nc2ccc(CNC(=O)c3ccccc3)c(OC)c2)n1 [Compound 876] | > 10
CNc1cc(C)nc(Nc2ccc(C(=O)NCc3ccccc3)c(OC)c2)n1 [Compound 877] | > 10
COc1ncc(Nc2nc(C)cc(NCC3COC3)n2)cc1OC[C@@H](O)CN1CCCC1 [Compound 883] | > 10
COc1ncc(Nc2nc(C)cc(NCC3COC3)n2)cc1OC[C@H](O)CN1CCCC1 [Compound 884] | > 10
CNc1cc(C)nc(Nc2cc(OC[C@@H](O)CN3CCCC3)c(OC)cn2)n1 [Compound 885] | > 10
CNc1cc(C)nc(Nc2cc(OC[C@H](O)CN3CCCC3)c(OC)cn2)n1 [Compound 886] | > 10
CNC(=O)N1CC(CNc2cc(C)nc(Nc3cnc(OC)c(OCCCN4CCCC4)c3)n2)C1 [Compound 888] | > 10
CNc1cc(C)nc(Nc2ccc(OC)c(OCCCc3nc(Cl)c[nH]3)c2)n1 [Compound 890] | > 10
CNc1cc(C)nc(Nc2ccc(OC)c(OCCCc3nc(Cl)cn3C)c2)n1 [Compound 891] | > 10
CNS(=O)(=O)CCNc1cc(C)nc(Nc2ccc(OC)c(OCCCN3CCCC3)c2)n1 [Compound 892] | 1 to 10
COc1cnc(Nc2cc(NCC3COC3)cnn2)cc1OCCCN1CCCC1 [Compound 894] | > 10
COc1cc2cc(C#N)c(C)nc2cc1OCCCN1CCCC1 [Compound 895] | > 10
COc1cc2cc(F)c(C)nc2cc1OCCCN1CCCC1 [Compound 896] | > 10
CNc1nc2cc(OCCCN3CCCC3)c(OC)cc2cc1F [Compound 897] | > 10

Now from value to compound:

IC50 [µM] | Compound
0.1 to 1 | CNc1cc(C)nc(Nc2ccc(OC)c(OCC(O)CN3CCCC3)c2)n1 (stereo in doubt) [Compound 906, (2S)-1-(2-methoxy-5-[[4-methyl-6-(methylamino)pyrimidin-2-yl]amino]phenoxy)-3-(pyrrolidin-1-yl)propan-2-ol]
1 to 10 | CNc1cc(C)nc(Nc2cc(OCCCN3CCCC3)c3ncnn3c2)n1 [Compound 623]
1 to 10 | CNc1cc(C)nc(Nc2cc(OCCCN3CCCC3)c3[nH]nnc3c2)n1 [Compound 624]
0.1 to 1 | COc1cc2c(C3CCN(C)CC3)cc(N3CCCC3)nc2cc1OCCCN1CCCC1 [Compound 625]
0.1 to 1 | COc1cc2c(C3CCN([C@H]4CCOC4)CC3)cc(C)nc2cc1OCCCN1CCCC1 [Compound 864]
0.1 to 1 | CCNc1cc(C2CCOCC2)c2cc(OC)c(OCCCN3CCCC3)cc2n1 [Compound 865]
< 0.1 | CNc1cc(C2CCN([C@@H]3CCOC3)CC2)c2cc(OC)c(OCCCN3CCCC3)cc2n1 [Compound 866]
< 0.1 | CNc1cc(C2CCN([C@H]3CCOC3)CC2)c2cc(OC)c(OCCCN3CCCC3)cc2n1 [Compound 867]
0.1 to 1 | CNc1cc(C)nc(Nc2cnc(OC)c(OC[C@@H](O)CN3CCCC3)c2)n1 [Compound 881]
1 to 10 | CNc1cc(C)nc(Nc2cnc(OC)c(OC[C@H](O)CN3CCCC3)c2)n1 [Compound 882]
1 to 10 | CNC(=O)CCNc1cc(C)nc(Nc2cnc(OC)c(OCCCN3CCCC3)c2)n1 [Compound 887]
0.1 to 1 | COc1ccc(Nc2nc(C)cc(NCCS(=O)(=O)N(C)C)n2)cc1OCCCN1CCCC1 [Compound 893]
